Experimental findings from ChEMBL document CHEMBL4261514, “Interaction of indomethacin with calf thymus DNA: a multi-spectroscopic, thermodynamic and molecular modelling approach” (Medchemcomm, 2017) are described below.

The source made the active and inactive calls. No cut-off for these calls is given here.

Common to all, as to assay type: nucleic-acid assay
Holding throughout (details): Bos taurus

In assay [1] the test system is Calf thymus DNA. Put plainly: Binding affinity to calf thymus DNA by UV-visible spectrophotometric method.
Assay [2] has as its system Calf thymus DNA. The experiment in a line: Binding affinity to calf thymus DNA assessed as hyperchromic shift at 281 nm at 50 uM by UV-visible spectrophotometric method.
Assay [3] concerns Calf thymus DNA. Put plainly: Inhibition of ethidium bromide binding to calf thymus DNA up to 80 uM by fluorescence assay.
Assay [4] concerns Calf thymus DNA. The experiment in a line: Binding affinity to calf thymus DNA assessed as quenching constant at 50 uM at pH 7.2 by spectrofluorophotometric method.
Assay [5] deals with Calf thymus DNA. Put plainly: Binding affinity to calf thymus DNA assessed as conformational change up to 100 uM by circular dichroism spectral analysis.
In assay [6] the test system is Calf thymus DNA. Put plainly: Inhibition of Hoechst 33258 binding to calf thymus DNA up to 70 uM by fluorescence assay.
For assay [7], the system named is Calf thymus DNA. Put plainly: Binding affinity to calf thymus DNA at 50 uM in presence of NaCl by fluorescence assay.
Assay [8] relates to Calf thymus DNA. The experiment in a line: Binding affinity to calf thymus DNA by isothermal calorimetric titration method. On the technique in general: ITC needs no label: the signal is the heat of the interaction.
Assay [9] deals with Calf thymus DNA. The experiment in a line: Inhibition of acridine orange binding to calf thymus DNA up to 80 uM by fluorescence assay.
Assay [10] concerns Calf thymus DNA. Put plainly: Binding affinity to calf thymus DNA assessed as iodide quenching by measuring reduction in Stern-Volmer quenching constant at 50 uM by fluorescence assay relative to control. The arrangement: scale not given: the % may be the effect or the level left.
In assay [11] the test system is Calf thymus DNA. The experiment in a line: Binding affinity to calf thymus DNA assessed as melting temperature at 50 uM by UV-visible spectroscopic method (reference value: 66.3 +/- 1 degC).
Assay [12] concerns Calf thymus DNA. Put plainly: Binding affinity to calf thymus DNA assessed as Stern-Volmer quenching constant at 50 uM at pH 7.2 by spectrofluorophotometric method.
For assay [13], the system named is Calf thymus DNA. The experiment in a line: Binding affinity to calf thymus DNA assessed as change in viscosity at compound to DNA ratio of 0.2 to 1 by viscometry.

On to `COc1ccc2c(c1)c(CC(=O)O)c(C)n2C(=O)c1ccc(Cl)cc1`, for which the values for the K in assay [1] and in assay [8] were 9.6 ×10³ L/mol and 5.5 ×10³ /mol, respectively. Also, the outcome in [2] was Active. In addition, the inhibition entry in assay [3] and in assay [9] was “inactive” each time. The Kq in assay [4] came to 1.1 ×10¹¹ L/mol/s. In addition, the outcome in assay [5], in assay [7] and in assay [13] was inactive. Also, in assay [6], the inhibition result was “Active”. The Activity in assay [10] worked out at 19%. Moreover, the Tm in assay [11] is 68.2 °C. Also, in [12], the KSV is 1.1 ×10³ L/mol.
